The results in this text go back to patent US5436261A, “Benzospiroalkene heterocyclic compounds” (Adir et Compagnie, priority 1993, dated 1995).

The test system of assay [1] is dog femoral arteries. Briefly: In vitro study on dog femoral arteries (contraction). Type of assay: cell-based, dog (mongrel). The conditions noted are these: Canis lupus familiaris, dog femoral artery rings; for EC50: 37C, cumulative doses; for Emax: relative to maximum effect of 100 mM KCl, read-out: ARTERY Max. How it is done:
(§1) In vitro study on dog femorai arteries and saphenous veins
(§2) The technique used is based on that described by FOWLER et al., (J. Pharmacol. Exp. Ther., 229, 712-718, 1984). Male or female mongrel dogs weighing approximately 15-25 kg were used as a source of organs. The animals are anesthetized with pentobarbital (30 mg/kg intravenously). The legs are incised and the vessels removed. They are placed in Krebs-Ringer fluid (118 mM NaCl; 25 mM NaHCO3; 10mM glucose; 4.7 mM KCl; 1.25 mM CaCl2; 1.19 mM MgSO4; 1.14 mM KH2 PO4) at room temperature and a stream of carbogen (95% O2, 5% CO2) is bubbled through. The fat is then carefully removed from these vessels, which are thereafter cut into rings 2 mm wide and mounted under a baseline tension of 4 g (femoral arteries) or 1 g (saphenous veins) in tanks thermostated at 37C containing Krebs-Ringer fluid with a stream of carbogen constantly bubbled through. A lower hook constitutes the fixed point, while the upper hook is connected to an isometric force gauge. The variations in tension are digitized, stored on disk and processed by a computer system. After mounting, the organs are left undisturbed for 90 minutes, rinsing being performed every 30 min. After readjustment of the baseline tension, a contraction is induced with a single dose of KCl (100 mM). After stabilization, washing and return to the baseline, a contraction is induced by a single dose of phenylephrine (submaximal concentrations) in order to regularize the following contractions. After washing and return to the baseline, an effect/concentration curve is plotted by adding cumulative doses of agonist (the spacing between the doses is on a semilogarithmic scale). This experiment enables the 50% effective concentration (EC50) to be calculated in the following manner: the tension values are first converted to percentages relative to the maximum effect produced by 100 mM KCl. This EC50 is determined by nonlinear regression by the SIMPLEX method (M. S. CACECI, Byte, 340-362, 1984), calculated according to the L. MICHAELIS and M. L. MENTEN model of the law of mass action (Blochem. Zeitschrift, 49, 333-369, 1913). E=(Emax*C^n)(EC^n +C^n) with E=effects; Emax=maximum effect; C=concentration; EC=EC50; n=HILL's number

Assay [2] has as its system dog saphenous veins. Put plainly: In vitro study on dog saphenous veins (contraction). The class given is cell-based, dog (mongrel). The conditions noted are these: Canis lupus familiaris, dog saphenous vein rings; for EC50: 37C, cumulative doses; for Emax: relative to maximum effect of 100 mM KCl, read-out: VEIN Max. How it is done:
as §1, §2

Assay [3] has as its system pithed rats. Put plainly: In vivo study in pithed rats, blood pressure. Further details: species or system rat (Sprague-Dawley). Conditions: Rattus norvegicus, iv, tertatolol pretreated, without prazosin or yohimbine, read-out: C20 Control (concentration that increases the pressure by 20 mm Hg). An excerpt:
(§3) In vivo study in PITBED RATS
(§4) Male Sprague-Dawley rats (300-400 g) are anesthetized with ether. The trachea is canulated, the spinal cord is destroyed by means of a steel rod and the animal is immediately placed under artificial respiration. The vagal nerves are sectioned. The carotid arteries are ligated; a catheter is placed in one and is used to record blood pressure. A further three catheters are placed in the jugular veins and the veins of the penis and are used for injections. The animals'temperature is maintained at 36° C. The animal is pretreated by an injection of tertatolol ([…]). The animal is also pretreated 10 minutes later with prazosin ([…]) or yohimbine (1 mg/kg) when it is desired to determine the alpha1 --or alpha2 -adrenergic properties of the product. Ten minutes later, increasing cumulative doses of the product are injected every 20 seconds. Variations in blood pressure are detected using a Statham P23XL pressure cell and are recorded. The pressure values are expressed in mmHg. This experiment enables the concentration that increases the pressure by 20 mm Hg (C2.sbsb.0) to be calculated by non-linear regression according to the Michaelis and Menten model of the law of mass action, as described above. The maximum effect obtained is then converted to a percentage relative to the maximum effect produced by phenylephrine. The alpha1 - or alpha2 -adrenergic components of the product are assessed by means of the ratio of the C2.sbsb.0 values obtained in the presence of prazosin or yohimbine to the values obtained in the absence of these antagonists. In pithed rats, the products of the invention produce prazosin- and yohimbine-sensitive hypertension.

Assay [4] concerns alpha2-adrenergic. Put plainly: In vivo study in pithed rats, pretreatment with yohimbine (alpha2-adrenergic component). Further details: species or system rat (Sprague-Dawley). Conditions: yohimbine (1 mg/kg) pretreatment.
Description: as §3, §4

In assay [5] the test system is carotid blood flow. Briefly: In vivo study of carotid blood flow in anesthetized dogs. Further details: species or system dog; dose or concentration left out as unconfirmed. The conditions noted are these: i.v., n-6. How it is done: In vivo study of carotid blood flow in anesthetized dogs
Dogs (12-18kg) are anesthetized with pentobarbital (30mg/kg i.v.). Anesthesia is then maintained by a perfusion of 0.8 ml/h of 6% pentobarbital. The animals are placed under assisted respiration and their temperature is maintained at 37C (Harvard thermostated blanket). Blood pressure and heart rate are measured by means of a Millar probe in the fernoral artery or brachial artery, via a transducer and a Gould biotach. The blood flow in the carotid arteries is recorded by means of a Gould SP2202 electromagnetic flow meter.

Each structure is given as a SMILES string. Where a name gives a salt, the structure may show the parent alone.

For the compound `C1=NC2(CCc3ccccc3C2)CN1` (centres unmarked) [Example 1, Spiro[(1,3-diaza-1-cyclopentene)-5,2'-(1',2',3',4'-tetrahydronaphthalene)]benzenesulfonate], in assay [1], the EC50 (in general, the concentration needed to bring the measured effect to its halfway point) was 5.9 µM and the Emax is 19%. In addition, in assay [2], a half-maximal response (EC50) required 1300 nM and the Emax amounted to 98%. Further, in assay [3], the ED (20 mm Hg) amounted to 0.004 mg/kg. Moreover, the “Ratio C20 treated/C20 control, Yohimbine” value in assay [4] was 4.7.

In the case of `COc1cc2c(cc1O)CCC1(CNC=N1)C2` (centres unmarked) [Example 3, Spiro[(1,3-diaza-1-cyciopentene)-5,2'-(6'-hydroxy-7'-methoxy-1',2',3',4'-tetrahydronaphthalene)]fumarate], in assay [3], the ED (20 mm Hg) is 0.0009 mg/kg. Moreover, the “Ratio C20 treated/C20 control, Yohimbine” value in assay [4] is 2.9.

As for `CC(C)Oc1ccc2c(c1)CCC1(CNC=N1)C2` (centres unmarked) [Example 5, Spiro[(1,3-diaza-1-cyclopentene)-5,2'-(6'-isopropyloxy-1',2',3',440-tetrahydronaphthalene)]fumarate], the ED (20 mm Hg) in assay [3] was determined as 0.068 mg/kg. Further, in assay [4], the “Ratio C20 treated/C20 control, Yohimbine” value was found to be 66.

As for `COc1ccc2c(c1OC)CCC1(CNC=N1)C2` (centres unmarked) [Example 7, Spiro[(1,3-diaza-1-cyclopentene)-5,2'-(5',6'-dimethoxy-1',2',3',4'-tetrahydronaphthalene)]fumarate], the ED (20 mm Hg) in assay [3] came out at 0.137 mg/kg. The “Ratio C20 treated/C20 control, Yohimbine” value in assay [4] worked out at 2.4.

Regarding `Cc1ccc2c(c1)CCC1(CNC=N1)C2` (centres unmarked) [Example 8, Spiro[(1,3-diaza-1-cyclopentene)-5,2'-(6'-methyl-1',2',3',4'-tetrahydronaphthalene)]fumarate], in assay [1], the EC50 was 13 µM and the Emax was found to be 12%. Further, in assay [2], a half-maximal response (EC50) required 2100 nM and the Emax was 44%.

Regarding `COc1cc(C)cc2c1CCC1(CNC=N1)C2` (centres unmarked) [Example 9, Spiro[(1,3-diaza-1-cyciopentene)-5,2'-(5'-methoxy-7'-methyl-1',2',3',4'-tetrahydronaphthalene) ]fumarate], the values for the EC50 in assay [1] and in assay [2] were 0.8 µM and 3900 nM, respectively. The Emax in assay [1] was determined as 60%; in assay [2], 81%.

As to `Clc1cc(Cl)c2c(c1)CC1(CC2)CNC=N1` (centres unmarked) [Example 17, Spiro[(1,3-diaza-1-cyclopentene)-5,2'-(5',7'-dichloro-1',2',3',4'-tetrahydronaphthalene)]fumarate], in assay [1], the EC50 was found to be 24 µM and the Emax came out at 10%. Moreover, in assay [2], a half-maximal effect (EC50) was put at 1900 nM and the Emax came to 44%.

In the case of `Cc1ccc2c(c1)CC1(CC2)CNC=N1` (centres unmarked) [Example 24, Spiro[(1,3-diaza-1-cyclopentene)-5,2'-(7'-methyl-1',2',3',4'-tetrahydronaphthalene)]fumarate], in assay [1], the EC50 was 70 µM and the Emax was 8%. In assay [2], the EC50 was 160 nM and the Emax came out at 57%. Besides, the ED (20 mm Hg) in assay [3] came to 0.03 mg/kg. In addition, the “Ratio C20 treated/C20 control, Yohimbine” value in assay [4] is 1.5.

For `C1=NC2(CN1)Cc1cccc3cccc(c13)C2` [Example 31, Spiro[(1,3-diaza-1-cyclopentene)-5,2'-(2,3'-dihydrophenalene)] 1/2 fumarate], the values for the EC50 in assay [1] and in assay [2] were 0.5 µM and 1600 nM, respectively. Also, the figures for the Emax in assay [1] and in assay [2] were 10% and 44%, respectively.

As for `Cc1ccc2c(c1)C[C@@]1(CC2)CNC=N1` [Example 46, (S)-Spiro[(1,3-diaza-1-cyclopentene)-5,2'-(7'-methyl-1',2',3',4'-tetrahydronaphthalene)]fumarate], in assay [1], the EC50 came to 15 µM and the Emax was found to be 36%. In addition, in assay [2], a half-maximal effect (EC50) was put at 1860 nM and the Emax was determined as 48%. Also, in assay [3], the ED (20 mm Hg) was found to be 0.0068 mg/kg. In addition, the “Ratio C20 treated/C20 control, Yohimbine” value in assay [4] is recorded as 3.4. Besides, the “fall in carotid blood flow” value in assay [5] is 62±4%.
